# How the values were obtained:
# [1] = tested on: CD4+ Tconv cells, CD8 T cells and NK cells; assay: Effector T cell and NK cell proliferation and expansion in mice after a single subcutaneous injection (Example 9); type: in vivo, mouse; conditions: 0.3 mg/kg single s.c., C57/BL6 mice
# Method: (§1) IL-2 variant Fc fusion proteins were administered to mice and their ability to preferentially proliferate and expand regulatory T cells (CD4+CD25+FoxP3+ T cells) over effector T cells and NK cells were determined in vivo.
# (§2) Female C57/BL6 mice (7-week old) were received from Charles River Laboratory and acclimated in house for at least 7 days before the study. Vehicle (PBS), 0.3 mg/kg of each test compounds, or IL-2 benchmark compounds were subcutaneously administered to mice on day 0. Peripheral blood samples were collected into heparin-treated tubes on days 3, 5 and 7 post-treatment. Each group contained 6 mice and baseline blood was collected 2 days prior to the treatment (day −2). After red blood cell lysis, total viable mononuclear blood cells were counted by trypan blue dead cell exclusion method and proceeded to intracellular staining for immune cell phenotype and Ki67 proliferation markers using flow cytometric analysis. Cells were stained separately with two panels of antibodies as listed: 1) anti-mouse Foxp3-FITC, Ki67-PE, anti-mouse CD25-APC and anti-mouse CD4-Percpcy5.5 (1:50 dilution) for CD4+T-regulatory cells (Treg); 2) anti-mouse CD3-FITC, Ki67-PE, anti-mouse CD335-APC and anti-mouse CD8-Percpcy5.5 (1:50 dilution) for CD8+T and NK cells.
# [2] = Transient expression level of IL-2 Fc fusion constructs in HEK-293F cells; conditions: Isoleucine-125 constructs
# Method: The constructs were produced by co-transfecting HEK293-F cells growing in suspension with the mammalian expression vectors using polyethylenimine (PEI, 25,000 MW linear, Polysciences). If there were two or more expression vectors, the vectors were transfected in a 1:1 ratio. For transfection, HEK293 cells were cultivated in serum free FreeStyle™ 293 Expression Medium (ThermoFisher). For production in 1000 ml shaking flasks (working volume 330 mL), HEK293 cells were seeded at a density of 0.8×10^6 cells/ml 24 hours before transfection. A total of 330 μg of DNA expression vectors were mixed with 16.7 ml Opti-mem Medium (ThermoFisher). After addition of 0.33 mg PEI diluted in 16.7 ml Opti-mem Medium, the mixture was vortexed for 15 sec and subsequently incubated for 10 min at room temperature. The DNA/PEI solution was then added to the cells and incubated at 37° C. in an incubator with 8% CO2. Sodium butyrate (Millipore Sigma) was added to the cells at day 4 at a final concentration of […] to help sustain protein expression. After 6 days cultivation, supernatant was collected for purification by centrifugation for 20 min at 2200 rpm. The solution was sterile filtered (0.22 μm filter, Corning). The secreted protein was purified from cell culture supernatants using Protein A affinity chromatography.
# S125I substitution was thus introduced into a number of IL-2 variant Fc fusion molecules. The constructs harboring Ile-125 substitution in IL-2 were expressed using the same vector and in the same culturing conditions as their Ser-125 counterparts and purified using MabSelectSure. The expression level in mg/L and purity assessed by SEC chromatography in aggregation % of exemplary molecules are summarized in Table 6. The two molecules in the same row of Table 6 share the same other amino acid substitution(s) and differ only at residue 125 with either serine or isoleucine. As an example, the SEC chromatogram and SDS-PAGE pictures of P-0447 (SEQ ID NO: 173) and its Ile-125 counterpart P-0511 (SEQ ID NO: 213) were further illustrated in FIGS. 1D and 1E.
# Treg cells [3] = assay: Treg proliferation and expansion in mice after a single subcutaneous injection (Example 9); type: in vivo, mouse; conditions: 0.3 mg/kg single s.c., C57/BL6 mice
# Method: as §1, §2
# Treg cells [4] = assay: Treg proliferation and expansion in mice after a single s.c. injection of bifunctional constructs (Example 17); type: in vivo, mouse; conditions: 15 nmol/kg single s.c., C57/BL6 mice
# Method: IL-2 variant tocilizumab bifunctional proteins P-0536, P-0546, P-0559, and P-0560 along with IL-2 variant Fc fusion protein P-0511 were administered to mice, and their ability to preferentially proliferate and expand regulatory T cells (CD4+CD25+FoxP3+ T cells) over effector T cells and NK cells were determined in vivo.
# Female C57/BL6 mice (7-week old) were received from Charles River Laboratory and acclimated in house for at least 7 days before the study. Vehicle (PBS) and 15 nmol/kg each test compounds were subcutaneously administered to mice on day 0. Peripheral blood samples were collected into heparin-treated tubes on days 2, 4 and 8 post-treatment. Each group contained 5 mice and baseline blood was collected 3 days prior to the treatment (day −3).
# [5] = tested on: KLH-induced DTH in Balb/C mice; assay: KLH-induced delayed-type hypersensitivity (DTH) mouse model, ear thickness; type: in vivo; conditions: for inhibition of ear inflammation (separate study): Q5D
# Method: The ability of Treg cells induced by IL-2 variants to suppress T cell antigen-driven inflammation in vivo was assessed in a model of delayed-type hypersensitivity (DTH). Female Balb/C mice (7-week old) were acclimated in house for 7 days and randomized into groups. Subcutaneous administration of vehicle (PBS), P-0511 at either 0.1 mg/kg or 0.3 mg/kg was initiated on day −2 and was given either once every 3 days (Q3D) for three injections or once every 5 days (Q5D) for two injections. Mice were then sensitized with a subcutaneous administration of 100 μg keyhole limpet hemocyanin (KLH) in 200 μl saline on day 0. For Q3D dosing, two more subcutaneous injections of PBS or P-0511 (0.1 or 0.3 mg/kg) were administered on days 1, and 4; for Q5D dosing, one additional s.c. injection of PBS, 0.1 or 0.3 mg/kg P-0511 was administered on day 3. Mice received an intradermal challenge of KLH (5 μg in 10 μl saline) in right ear on day 5. Right ear thickness was measured using a caliper on day 5 prior KLH challenge and daily from day 6 to day 9 corresponding to 24 h, 48 h, 72 h and 96 h post KLH challenge. One group of mice also received 5 mg/kg daily i.p. treatment of dexamethasone from day 5 to day 8 as a positive control.
# Kinetics of the DTH response using the change in ear thickness relative to baseline values (Δ ear thickness) at various times after KLH challenge was illustrated in FIG. 23.
substance,measurement,setting,value
"P-0511: IL-2 L19H/S125I/Q126E Fc fusion, SEQ ID NO: 213",Ki67 stimulation on CD8 T cells and NK cells in vivo (in words),[1],mild Ki67 stimulation
same,"expansion of CD4+ Tconv cells, CD8 T cells or NK cells in vivo",[1],No significant expansion
same,Expression,[2],26.6 mg/L
same,Treg/Tconv ratio (Ki67 stimulation and cell counts),Treg cells [3]; all measured time points,most beneficial Treg/Tconv ratio
same,stimulation of Treg cell proliferation and expansion in vivo (in words),"Treg cells [3]; days 3, 5, 7",stronger in vivo efficacy
same,potency in inducing Treg cell proliferation and expansion in vivo (in words),Treg cells [4],comparable in vivo Treg stimulation efficacy as P-0560
same,suppression of DTH ear swelling,"[5]; 0.1 mg/kg s.c., Q3D and Q5D",did not reach statistical significance at most of the time points
same,inhibition of ear inflammation (separate study),[5]; 0.1 mg/kg,mild
same,inhibition of ear inflammation (separate study),[5]; 0.3 mg/kg,Intermediate
same,inhibition of ear inflammation (separate study),[5]; 1 mg/kg,strong resistance to KLH-induced DTH

# — patent US20220170028A1, “NOVEL INTERLEUKIN-2 VARIANTS AND BIFUNCTIONAL FUSION MOLECULES THEREOF” (Cugene Inc, priority 2019, published 2022)
